This is an account of results in patent US9796714B2, “Calcium channel agonists” (University of Pittsburgh—Of the Commonwealth System of …, priority 2013, dated 2017).

Series [1] deals with T1, N-type Ca^2+ channel (Cav2.2) (Rattus norvegicus, UniProt Q02294).
T1 construct: expressed in transfected cells; later also transient transfection
The series can be described thus: N-type Ca2+ channel agonist activity, whole-cell perforated patch clamp of tail currents in tsA201 cells. The format is cell-based. The settings on record: for EC50: whole cell perforated patch clamp, deactivation (tail) currents from N-type channels, read-out: N-Type Ca^2+ Channel Activity EC50 +/− SEM. Here is the method: tsA201 cells expressing calcium channels. […] For subsequent evaluation of effects on N-, P/Q-, or L-type channels, tsA-201 cells were transiently transfected with Cav2.2, Cav2.1, or Cav1.3, in combination with Cavβ3 and […] (Addgene, Cambridge Mass.) using FuGENE 6 (Life Technologies, Grand Island, N.Y.). All cells were maintained in DMEM supplemented with 10% fetal bovine serum. For the stable cell line expressing N-type channels, 25 μg/mL zeocin, 5 μg/mL blasticidin, and 25 μg/mL hygromycin were added as selection agents.
Whole-cell patch clamp recordings of calcium current. […] Briefly, the pipette solution consisted of […] Cs2SO4, 60 mM CsCl, 1 mM MgCl2, 10 mM 4-(2-hydroxyethyl)-1-piperazineethanesulfonic acid (HEPES) at pH 7.4. […] Patch pipettes were fabricated from borosilicate glass and pulled to a resistance of about 1 MΩ. Before each experiment, a stock solution consisting of 3 mg amphotericin-B dissolved into 50 μL anhydrous DMSO was made. […] Capacitive currents and passive membrane responses to voltage commands were subtracted from the data. Currents were amplified by an Axopatch 200B amplifier, filtered at 5 KHz, and digitized at 10 KHz for subsequent analysis using pClamp software (Axon Instruments/Molecular Devices; Sunnyvale, Calif.). […] To measure effects on calcium channel tail currents, the tail current integral was measured before and after application of a derivative, with the integral of each trace being normalized to its peak. All experiments were carried out at room temperature (22° C.). […] All other salts and chemicals were obtained from Sigma-Aldrich chemical company (St. Louis, Mo.).
Statistical Analysis. Statistical analysis was performed using either GraphPad Prism 5 (GraphPad Software, Inc.) or Origin 7 (OriginLab) software. For the dose-response analyses on Ca^2+ current, each concentration of the four different compounds was tested in 3-6 cells. […] All EC50 and IC50 values and their respective errors were determined by performing 100 iterations of a logistic function curve fit. Data are presented as mean±s.e.m. unless otherwise noted.
In general terms: Patch clamp records ionic current or voltage across a cell membrane.

The conditions of series [2]: cited from earlier work.
In a further series the test system is LEMS model NMJs. The series can be described thus: Intracellular recordings at LEMS model mouse NMJs, 13x, DAP and combination (Example 4). The settings on record: 50 μM 13x, […] DAP, or both. Here is the method:
To test this, intracellular microelectrode recordings were performed on ex vivo nerve-muscle preparations taken from LEMS passive-transfer model mice and measured the magnitude of acetylcholine released at the neuromuscular junction. The most sensitive method of quantifying the magnitude of acetylcholine released is to determine the quantal content. Quantal content is defined as the number of neurotransmitter-containing synaptic vesicles that are released from the nerve terminal during a single action potential stimulus. This value was determined by first measuring the area under the average action potential-evoked endplate potential (EPP) and then dividing this value by the area under the average single vesicle release event (miniature endplate potential; mEPP). This value could be compared between experimental groups to provide an accurate measurement of changes in the magnitude of acetylcholine released during a single action potential. Using this approach, the quantal content among five experimental conditions was compared: control NMJs, LEMS NMJs, LEMS NMJs exposed to 50 μM 13x, LEMS NMJs exposed to 1.5 μM DAP, and LEMS NMJs exposed to 50 μM 13x+1.5 μM DAP (FIG. 10). […]; EPP amplitude=10.18±0.62 mV) as compared with control serum treated mouse NMJs (QC=107.5±3.6; EPP amplitude=34.62±1.37 mV; Tarr et al., 2013). […] In fact, this 13x-mediated enhancement was very similar to what was observed after exposure of LEMS model NMJs to 1.5 μM DAP (QC=49.0±4.4; EPP amplitude=17.94±1.381 mV). […]; EPP amplitude=34.62±1.37 mV; Tarr et al., 2013). […] In summary, while either 13x or DAP alone caused about an 80% increase in transmitter release from LEMS model NMJs, the combination of 13x plus DAP caused about a 300% increase in transmitter release.

Series [3] concerns LEMS passive transfer mouse NMJs. The series can be described thus: Intracellular recordings at LEMS passive transfer mouse NMJs, ex vivo ETA nerve-muscle preparation (Example 3). The conditions noted are these: 50 μM, mean±SD, aBC2 LEMS passive transfer NMJs. Here is the method: LEMS passive transfer. To test GV-58 in a LEMS model NMJ, an established LEMS passive transfer mouse model was utilized. To perform the passive transfer of LEMS, mice were injected with the serum of patients diagnosed with LEMS. […] Each serum sample was tested for the presence of voltage-gated Ca^2+ channel antibodies using a Ca^2+ channel antibody radioimmune assay (Kronus RIA kit, Star, Id.). Control serum was obtained from the University of Pittsburgh Medical Center blood bank. […]; 25-32 g; Charles River Laboratories) were divided into two groups: one group that received LEMS serum, and a control group that received control serum.
Intracellular recordings at mouse NMJs. […] A thin upper arm muscle, the epitrochleoanconeus (ETA), was chosen for these recordings. […] […]. A train of 10 EPPs was also collected in each muscle fiber using an inter-stimulus interval of 20 msec. To analyze the data, both the amplitudes and the areas under the waveforms (integral) were determined after correcting each digitized point in each trace for non-linear summation. Data were collected and analyzed using an Axoclamp 900A and the pClamp 10 suite of programs (Molecular Devices, Sunnyvale, Calif.).
Statistical Analysis. […] For the dose-response analyses on Ca^2+ current, each concentration of the four different compounds was tested in 3-6 cells. […]. All EC50 and IC50 values and their respective errors were determined by performing 100 iterations of a logistic function curve fit.

The mark [4] stands for this setting: oral administration to patients.

T1 sequence (Q02294 whole entry): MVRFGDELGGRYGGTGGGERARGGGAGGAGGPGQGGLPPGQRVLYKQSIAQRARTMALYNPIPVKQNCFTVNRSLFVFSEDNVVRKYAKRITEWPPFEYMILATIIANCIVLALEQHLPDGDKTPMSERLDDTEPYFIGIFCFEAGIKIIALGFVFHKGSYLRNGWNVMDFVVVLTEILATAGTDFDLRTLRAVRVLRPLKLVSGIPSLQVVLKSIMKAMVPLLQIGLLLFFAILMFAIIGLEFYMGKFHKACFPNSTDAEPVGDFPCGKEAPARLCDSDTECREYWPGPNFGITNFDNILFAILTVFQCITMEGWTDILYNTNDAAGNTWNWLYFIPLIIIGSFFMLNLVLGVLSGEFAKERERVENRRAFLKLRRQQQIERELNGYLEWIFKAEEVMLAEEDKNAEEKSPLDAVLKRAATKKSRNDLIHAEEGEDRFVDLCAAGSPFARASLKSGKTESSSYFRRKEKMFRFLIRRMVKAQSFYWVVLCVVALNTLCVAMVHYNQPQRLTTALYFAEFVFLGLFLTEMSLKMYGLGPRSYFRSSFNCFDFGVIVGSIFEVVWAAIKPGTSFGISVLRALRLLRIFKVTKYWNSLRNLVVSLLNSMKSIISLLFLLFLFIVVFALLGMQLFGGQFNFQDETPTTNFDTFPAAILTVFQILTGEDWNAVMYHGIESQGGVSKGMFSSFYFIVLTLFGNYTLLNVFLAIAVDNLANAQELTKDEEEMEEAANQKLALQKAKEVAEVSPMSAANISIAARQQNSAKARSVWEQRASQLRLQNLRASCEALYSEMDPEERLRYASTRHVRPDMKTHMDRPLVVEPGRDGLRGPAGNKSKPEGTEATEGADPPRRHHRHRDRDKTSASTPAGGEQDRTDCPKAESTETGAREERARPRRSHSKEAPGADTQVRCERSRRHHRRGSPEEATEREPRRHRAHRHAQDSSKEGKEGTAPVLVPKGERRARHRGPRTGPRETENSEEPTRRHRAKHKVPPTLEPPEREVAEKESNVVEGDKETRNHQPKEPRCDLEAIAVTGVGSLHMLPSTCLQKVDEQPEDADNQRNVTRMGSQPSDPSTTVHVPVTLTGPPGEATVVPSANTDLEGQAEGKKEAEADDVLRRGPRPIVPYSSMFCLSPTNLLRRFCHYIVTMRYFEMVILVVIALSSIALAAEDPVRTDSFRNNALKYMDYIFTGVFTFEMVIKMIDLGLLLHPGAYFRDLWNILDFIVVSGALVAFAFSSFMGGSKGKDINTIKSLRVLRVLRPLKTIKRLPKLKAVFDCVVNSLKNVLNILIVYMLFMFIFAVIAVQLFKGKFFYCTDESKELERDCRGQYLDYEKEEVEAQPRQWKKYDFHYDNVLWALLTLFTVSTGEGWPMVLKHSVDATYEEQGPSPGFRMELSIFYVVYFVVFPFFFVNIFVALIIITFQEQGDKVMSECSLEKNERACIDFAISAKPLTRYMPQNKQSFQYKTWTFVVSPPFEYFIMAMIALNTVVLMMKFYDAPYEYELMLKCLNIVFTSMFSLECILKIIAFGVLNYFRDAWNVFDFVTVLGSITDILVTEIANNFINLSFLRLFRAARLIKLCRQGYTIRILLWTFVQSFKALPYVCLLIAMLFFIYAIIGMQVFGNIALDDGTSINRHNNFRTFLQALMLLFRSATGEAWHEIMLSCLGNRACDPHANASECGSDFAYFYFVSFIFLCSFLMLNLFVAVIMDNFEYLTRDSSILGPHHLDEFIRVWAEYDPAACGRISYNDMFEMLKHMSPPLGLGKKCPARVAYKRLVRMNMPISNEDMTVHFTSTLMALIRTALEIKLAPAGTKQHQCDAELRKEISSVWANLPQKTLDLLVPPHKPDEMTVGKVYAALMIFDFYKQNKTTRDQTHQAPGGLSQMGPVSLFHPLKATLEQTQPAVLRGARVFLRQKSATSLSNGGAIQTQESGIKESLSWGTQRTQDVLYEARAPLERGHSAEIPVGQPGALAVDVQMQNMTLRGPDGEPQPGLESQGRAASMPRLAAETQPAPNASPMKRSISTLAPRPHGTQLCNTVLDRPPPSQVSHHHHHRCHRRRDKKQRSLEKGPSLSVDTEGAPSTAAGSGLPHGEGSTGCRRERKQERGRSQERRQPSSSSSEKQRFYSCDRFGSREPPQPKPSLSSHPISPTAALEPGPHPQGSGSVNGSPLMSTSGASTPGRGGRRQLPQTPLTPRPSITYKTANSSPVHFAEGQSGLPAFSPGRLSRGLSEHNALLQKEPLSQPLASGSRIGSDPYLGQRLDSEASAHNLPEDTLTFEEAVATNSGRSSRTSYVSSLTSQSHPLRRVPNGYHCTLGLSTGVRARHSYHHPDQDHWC

As to `CCCn1cnc2c(NCc3ccc(-c4ccccc4)cc3)nc(N[C@H](CC)CO)nc21` [Compound 13a, (R)-2-(6-(Biphenyl-4-ylmethylamino)-9-propyl-9H-purin-2-ylamino)butan-1-ol], the EC50 in series [1] was above 100 µM.
In the case of `CCCn1cnc2c(NCCc3ccccc3)nc(N[C@H](CC)CO)nc21` [Compound 13c, (R)-2-(6-(Phenethylamino)-9-propyl-9H-purin-2-ylamino)butan-1-ol], the EC50 in series [1] was above 100 µM.
Take `CCCn1cnc2c(NCc3ccccc3)nc(N[C@H](CC)CO)nc21` [Compound 13d, (R)-2-(6-(Benzylamino)-9-propyl-9H-purin-2-ylamino)butan-1-ol]: the “increased Ca^2+ channel agonism vs. (R)-roscovitine” value in series [1] (N-type) is given as “ca. 2 fold”. For the same compound, the EC50 in series [1] worked out at 14.2 µM.
For the compound `CCCn1cnc2c(Nc3ccccc3)nc(N[C@H](CC)CO)nc21` [Compound 13e, (R)-2-(6-(Phenylamino)-9-propyl-9H-purin-2-ylamino)butan-1-ol], the EC50 in series [1] is above 100 µM.
In the case of `CCCn1cnc2c(NCc3cccnc3)nc(N[C@H](CC)CO)nc21` [Compound 13f, (R)-2-(9-Propyl-6-(pyridin-3-ylmethylamino)-9H-purin-2-ylamino)butan-1-ol], the EC50 in series [1] is above 100 µM.
As for `CCCn1cnc2c(NCC3CC3)nc(N[C@H](CC)CO)nc21` [Compound 13g, (R)-2-(6-(Cyclopropylmethylamino)-9-propyl-9H-purin-2-ylamino)butan-1-ol], the “agonist effect on the Ca^2+ channel tail currents (in words)” value in series [1] (N-type) is given as “complete loss of N-type Ca^2+ channel activity”. For the same compound, the EC50 in series [1] was above 100 µM.
As to `CC[C@H](CO)Nc1nc(NCc2ccc(-c3ccccc3)cc2)c2ncn(C)c2n1` [Compound 13h, (R)-2-(6-(Biphenyl-4-ylmethylamino)-9-methyl-9H-purin-2-ylamino)butan-1-ol], in series [1], the EC50 was above 100 µM.
For `CC[C@H](CO)Nc1nc(NCCc2ccccc2)c2ncn(C)c2n1` [Compound 13j, (R)-2-(9-Methyl-6-(phenethylamino)-9H-purin-2-ylamino)butan-1-ol], the EC50 in series [1] was above 100 µM.
In the case of `CC[C@H](CO)Nc1nc(Nc2ccccc2)c2ncn(C)c2n1` [Compound 13l, (R)-2-(9-Methyl-6-(phenylamino)-9H-purin-2-ylamino)butan-1-ol], in series [1], the EC50 is above 100 µM.
On to `CC[C@H](CO)Nc1nc(NCC2CC2)c2ncn(C)c2n1` [Compound 13m, (R)-2-(6-(Cyclopropylmethylamino)-9-methyl-9H-purin-2-ylamino)butan-1-ol], for which the EC50 in series [1] was above 100 µM.
Take `CC[C@H](CO)Nc1nc(NCc2cccnc2)c2ncn(C)c2n1` [Compound 13n, (R)-2-(9-Methyl-6-(pyridin-3-ylmethylamino)-9H-purin-2-ylamino)butan-1-ol]: the EC50 in series [1] was above 100 µM.
Consider `CCCn1cnc2c(NCc3ccc(C(F)(F)F)cc3)nc(N[C@H](CC)CO)nc21` [Compound 13o, (R)-2-(9-Propyl-6-(4-(trifluoromethyl)benzylamino)-9H-purin-2-ylamino)butan-1-ol], for which the EC50 in series [1] is above 100 µM.
Regarding `CC[C@H](CO)Nc1nc(NCC2CC2)c2ncn(C(C)C)c2n1` [Compound 13p, (R)-2-(6-(Cyclopropylmethylamino)-9-isopropyl-9H-purin-2-ylamino)butan-1-ol], the EC50 in series [1] was above 100 µM.
With `CC[C@H](CO)Nc1nc(NCCc2ccccc2)c2ncn(C(C)C)c2n1` [Compound 13q, (R)-2-(9-Isopropyl-6-(phenethylamino)-9H-purin-2-ylamino)butan-1-ol], the EC50 in series [1] was above 100 µM.
As to `CC[C@H](CO)Nc1nc(NCc2cccnc2)c2ncn(C(C)C)c2n1` [Compound 13r, (R)-2-(9-Isopropyl-6-(pyridin-3-ylmethylamino)-9H-purin-2-ylamino)butan-1-ol], the EC50 in series [1] is above 100 µM.
Take `CC[C@H](CO)Nc1nc(NCc2ccc(-c3ccccc3)cc2)c2ncn(C(C)C)c2n1` [Compound 13s, (R)-2-(6-(Biphenyl-4-ylmethylamino)-9-isopropyl-9H-purin-2-ylamino)butan-1-ol]: the EC50 in series [1] was above 100 µM.
Consider `CC[C@H](CO)Nc1nc(NC(c2ccccc2)c2ccccc2)c2ncn(C(C)C)c2n1` [Compound 13t, (R)-2-(6-(Benzhydrylamino)-9-isopropyl-9H-purin-2-ylamino)butan-1-ol], for which, in series [1], the EC50 is above 100 µM.
With `CC[C@H](CO)Nc1nc(NCc2cccc(C(F)(F)F)c2)c2ncn(C(C)C)c2n1` [Compound 13v, (R)-2-(9-Isopropyl-6-(3-(trifluoromethyl)benzylamino)-9H-purin-2-ylamino)butan-1-ol], in series [1], the EC50 was above 100 µM.
Consider `Nc1ccncc1N` [DAP, 3,4-diaminopyridine, reference compound], for which the serum levels result in series [2] (clinical trials, 10-20 mg 3 times per day) was “about 0.5 μM”. In addition, in series [2] (setting [4]), the peak serum levels was 70 to 150 ng/mL and the “peak serum levels, corresponding concentration” value is 0.5 to 1.5 µM. Besides, in the series on LEMS model NMJs, the “10th EPP of 50 Hz train as % of the first EPP (short-term plasticity)” value is around 132% and the “increase in transmitter release from LEMS model NMJs” value is listed as around 80%. For the same compound, in the series on LEMS model NMJs (LEMS model NMJs), the EPP amplitude is recorded as 17.94±1.381 mV. The “quantal content (QC, area of EPP divided by area of mEPP)” value in the series on LEMS model NMJs (LEMS model NMJs, mean±s.e.m.) worked out at 49.0±4.4.
`Cn1cnc2c(NCc3ccccc3)nc(NCCO)nc21` [olomoucine, reference compound]: the “quantal content (EPP peak amplitude divided by mEPP peak amplitude)” value in series [3] is listed as 33.4±11.3; in series [3] (listed as oloumucine) it was “slightly, but significantly smaller”. The figures for the “quantal content determined from the area (integral) under EPP and mEPP waveforms” value in series [3] and in series [3] (listed as oloumucine) were 34.6±11.2 and “not significantly different”, respectively.
